Numbers after ± are expanded uncertainties.
Conditions: DTA

Row | Glass transition temperature [°C] | Compound
1 | -83.17 ± 4 | CCC(=O)[O-].CCn1cc[n+](C)c1 [1-ethyl-3-methylimidazolium propionate]
2 | -82.92 ± 4 | CCC(=O)[O-].CCCn1cc[n+](C)c1 [1-propyl-3-methylimidazolium propionate]
